The results in this text go back to patent US20040208782A1, “Composition and process for chemical and thermal disinfection” (priority 2003, published 2004).

Data set [1] has as its system Mycobacterium terrae (ATCC15755). The data set is described as follows: Mycobacterium terrae quantitative suspension test (Test 2), reduction factors. The conditions noted are these: for activity for Mycobacterium terrae (in words): 0.1% by weight; for reduction factor: Example 4, 0.1% by weight. Format: cell-based.
Data set [2] relates to bacteria, fungi and mycobacteria. The data set is described as follows: Quantitative suspension test, overall spectrum of activity (result statements). Format: cell-based. Particulars: 0.1% by weight.
The nature of data set [3]: Solubility in water. Format: physicochemical.
Data set [4] in a line: Stoppered cylinder foam test (Test 3). The format is physicochemical. The conditions noted are these: 0.1% by weight aqueous solution, room temperature. The method, then: The test is used for qualitative assessment of the foaming behaviour of solutions.
The solution to be tested is introduced, avoiding foaming as far as possible, up to the 30 ml mark in a 100 ml measuring cylinder (graduated). It is advisable to hold the cylinder at an angle and allow the solution to run slowly down the wall of the mixing cylinder. The stopper is then inserted.
If foam has nevertheless formed when introducing the solution, the test is not carried out until the foam has completely disappeared. The stoppered cylinder is shaken vigorously 10×, and the stopclock is started. The total volume of solution and foam is then read off in ml after previously specified times.
Test 3 at Room Temperature

Where “and” joins values, the source holds several entries; their conditions need not be identical. Identical values can stand only once.

Regarding `CCCCC(CC)COCC(O)CO` (stereo not shown) [SC 50, 1-(2-Ethylhexyl)glycerol ether], the “activity for Mycobacterium terrae (in words)” value in data set [1] (50° C.) is listed as “active”; in data set [1] (room temperature, only at 60 minutes in 30% by weight ethanol solution) it was “good activity”. In addition, in data set [1] (0.1% strength or 0.05% strength aqueous solution, elevated temperature (e.g. 60° C.)), the “activity (in words)” value was “excellent activity”. For the same compound, the reduction factor is reported as 4.80 in data set [1] (50° C., action for 15′); 4.66 in data set [1] (50° C., action for 30′); 5.52 in data set [1] (50° C., action for 60′). The “activity on Mycobacterium terrae (in words)” value in data set [1] (above room temperature, alkaline range) is on record as “excellent activity”. Further, the “antimicrobial activity (in words)” value in data set [2] (50° C., gram-positive and gram-negative bacteria, yeasts and mycobacteria) is recorded as “broad activity”; in data set [2] (low temperature), “virtually no antimicrobial activity”. The same compound registered a solubility in water in data set [3] of 0.18 % by weight. The “foaming behaviour (in words)” value in data set [4] was “virtually no foam”.
For the compound `CCCCCCCCOCC(O)CO` (stereo not shown) [1-(n-octyl)glycerol ether], the solubility in water in data set [3] was < 0.2 % by weight and > 0.1 % by weight. Further, the “foaming behaviour (in words)” value in data set [4] was “pronounced foaming”.
